Values of other authors in patent US20250161397A1, “PLANT BASED FORMULATION FOR FAST PAIN RELIEF AND PREPARATION METHOD” (ARJUNA NATURAL PRIVATE LIMITED, priority 2022, published 2025).

How the values were obtained:
[1] = molecular target: T1, 5-LOX (Homo sapiens, UniProt P09917); conditions: literature
T1 sequence (P09917 1-674): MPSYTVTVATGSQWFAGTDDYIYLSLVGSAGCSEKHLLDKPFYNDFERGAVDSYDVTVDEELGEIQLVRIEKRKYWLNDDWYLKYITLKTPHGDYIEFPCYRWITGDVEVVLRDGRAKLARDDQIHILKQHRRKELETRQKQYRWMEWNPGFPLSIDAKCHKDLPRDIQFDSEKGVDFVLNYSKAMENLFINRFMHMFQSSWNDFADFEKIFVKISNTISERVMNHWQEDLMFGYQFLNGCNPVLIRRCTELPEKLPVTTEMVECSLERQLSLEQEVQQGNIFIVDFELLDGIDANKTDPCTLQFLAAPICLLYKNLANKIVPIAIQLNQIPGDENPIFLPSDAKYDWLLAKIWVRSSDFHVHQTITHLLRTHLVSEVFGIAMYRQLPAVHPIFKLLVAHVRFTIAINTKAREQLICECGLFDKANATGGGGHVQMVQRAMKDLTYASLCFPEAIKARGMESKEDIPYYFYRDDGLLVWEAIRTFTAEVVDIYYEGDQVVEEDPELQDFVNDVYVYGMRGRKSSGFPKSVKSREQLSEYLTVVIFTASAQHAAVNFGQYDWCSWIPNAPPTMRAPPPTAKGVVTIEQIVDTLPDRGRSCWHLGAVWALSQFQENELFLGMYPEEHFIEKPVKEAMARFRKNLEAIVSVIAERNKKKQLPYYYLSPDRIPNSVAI

[2] = molecular target: COX-1 (Homo sapiens, UniProt P23219); conditions: Siemoneit 2008
Sequence of COX-1 (Homo sapiens, UniProt P23219) (P23219 24-599): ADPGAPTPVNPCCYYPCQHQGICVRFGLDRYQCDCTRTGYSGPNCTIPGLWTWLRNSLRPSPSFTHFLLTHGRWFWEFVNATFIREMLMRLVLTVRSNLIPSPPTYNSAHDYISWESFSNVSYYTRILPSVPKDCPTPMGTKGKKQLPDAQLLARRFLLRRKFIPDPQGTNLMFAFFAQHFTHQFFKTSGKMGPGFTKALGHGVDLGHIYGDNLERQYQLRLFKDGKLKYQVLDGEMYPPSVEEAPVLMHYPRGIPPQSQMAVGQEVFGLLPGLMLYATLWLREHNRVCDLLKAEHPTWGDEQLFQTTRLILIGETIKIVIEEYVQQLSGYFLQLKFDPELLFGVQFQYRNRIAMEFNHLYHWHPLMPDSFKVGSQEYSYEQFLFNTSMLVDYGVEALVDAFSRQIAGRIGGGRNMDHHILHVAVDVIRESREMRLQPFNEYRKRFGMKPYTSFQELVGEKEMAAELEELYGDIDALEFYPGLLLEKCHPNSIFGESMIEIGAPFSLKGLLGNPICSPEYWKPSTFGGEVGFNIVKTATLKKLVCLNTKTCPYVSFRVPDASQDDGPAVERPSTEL

[3] = molecular target: T2, COX-2 (Homo sapiens, UniProt P35354); conditions: Siemoneit 2008
T2 sequence (P35354 18-604): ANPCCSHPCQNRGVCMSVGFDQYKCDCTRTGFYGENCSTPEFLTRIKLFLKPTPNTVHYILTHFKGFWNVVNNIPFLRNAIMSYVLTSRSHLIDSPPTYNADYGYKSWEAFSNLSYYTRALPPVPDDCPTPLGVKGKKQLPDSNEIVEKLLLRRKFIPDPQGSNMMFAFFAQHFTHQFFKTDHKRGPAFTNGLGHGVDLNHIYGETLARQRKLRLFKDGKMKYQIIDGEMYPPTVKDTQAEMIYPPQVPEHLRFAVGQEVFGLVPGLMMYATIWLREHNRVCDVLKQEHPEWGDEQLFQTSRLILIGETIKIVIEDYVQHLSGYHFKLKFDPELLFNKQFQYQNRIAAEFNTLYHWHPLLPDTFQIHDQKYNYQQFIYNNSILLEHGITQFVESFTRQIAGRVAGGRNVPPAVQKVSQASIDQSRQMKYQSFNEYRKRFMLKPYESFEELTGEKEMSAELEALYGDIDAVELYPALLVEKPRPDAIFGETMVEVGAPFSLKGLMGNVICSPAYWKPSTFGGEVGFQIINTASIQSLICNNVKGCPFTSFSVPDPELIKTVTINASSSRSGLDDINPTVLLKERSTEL

[4] = system: COX-2; conditions: HT-29 human colon cancer cells; Goel 2001
[5] = system: COX-1; conditions: Goel 2001
[6] = molecular target: T3, 12/15 LOX (Rattus norvegicus, UniProt Q02759); conditions: in vitro, rat lung cytosolic fraction; Bezáková 2014
T3 construct: from tissue; host or cells: rat lung cytosolic fraction
T3 sequence (Q02759 1-663): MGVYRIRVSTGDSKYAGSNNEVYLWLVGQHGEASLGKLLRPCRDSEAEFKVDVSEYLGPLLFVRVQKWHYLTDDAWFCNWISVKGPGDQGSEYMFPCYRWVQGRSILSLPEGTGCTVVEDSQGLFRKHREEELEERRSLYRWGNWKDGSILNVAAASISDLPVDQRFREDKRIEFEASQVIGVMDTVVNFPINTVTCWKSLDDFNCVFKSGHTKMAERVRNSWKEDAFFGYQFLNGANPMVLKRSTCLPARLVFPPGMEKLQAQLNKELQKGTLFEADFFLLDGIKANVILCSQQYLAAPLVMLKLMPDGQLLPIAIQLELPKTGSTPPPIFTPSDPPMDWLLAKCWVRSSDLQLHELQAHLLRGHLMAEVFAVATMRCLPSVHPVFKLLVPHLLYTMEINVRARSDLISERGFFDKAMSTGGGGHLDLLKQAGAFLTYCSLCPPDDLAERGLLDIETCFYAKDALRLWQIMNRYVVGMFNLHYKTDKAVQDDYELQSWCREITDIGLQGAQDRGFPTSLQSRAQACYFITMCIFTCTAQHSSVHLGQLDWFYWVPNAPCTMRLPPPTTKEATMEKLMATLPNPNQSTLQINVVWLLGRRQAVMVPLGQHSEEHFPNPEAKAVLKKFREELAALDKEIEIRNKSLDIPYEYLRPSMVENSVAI

Structure (SMILES)	inhibition of 5-LOX [1]	inhibition of COX-1 [2]	inhibition of COX-2 [3]	effect on mRNA and protein expression of COX-2 [4]	effect on mRNA and protein expression of COX-1 [5]	inhibition of 12/15 LOX [6]
CC(=O)O[C@@H]1CC[C@@]2(C)[C@@H](CC[C@]3(C)[C@@H]2C(=O)C=C2[C@@H]4[C@@H](C)[C@H](C)CC[C@]4(C)CC[C@]23C)[C@@]1(C)C(=O)O [AKBA, acetyl-11-keto-β-boswellic acid]	good inhibition of 5-LOX	reversible inhibition of COX-1	less efficiently inhibited by AKBA as compared to COX-1			
COc1cc(/C=C/C(=O)CC(=O)/C=C/c2ccc(O)c(OC)c2)ccc1O [Curcumin, curcumin]	bind to the active site of 5-LOX and inhibit its activity			inhibit the mRNA and protein expression of COX-2	not COX-1	competitive inhibitor of 12/15 LOX
